Assay results reported in patent EP0794185A1, “BICYCLIC THIAZOLE COMPOUND” (MEIJI SEIKA KABUSHIKI KAISHA, priority 1994, dated 1996).

Key:
[1] = system: hyperlocomotion induced by methamphetamine in mice; test: Anti-methamphetamine effect: inhibition of hyperlocomotion induced by methamphetamine in mice; type: in vivo, Male ddY mice; settings: Mus musculus, 0.25 h, ip, 15 min after methamphetamine 2 mg/kg sc, locomotion measured for thirty minutes
Method: The antipsychotic activity of the compound according to the present invention was assayed by an index the inhibitory activity on the stimulation of hyperlocomotion induced by methamphetamine in mice. Male ddY mice having a weight of 25 - 35 g were divided into groups each consisting of 3 - 6 animals. The mouse was subcutaneously administered with methamphetamine (2 mg/kg). Fifteen minutes after this administration, the compound of the present invention was intraperitoneally administered. After further fifteen minutes, the animal was then placed in a transparent acrylic box (30 cm x 30 cm x 30 cm) mounted on an apparatus to measure the locomotion for thirty minutes (MUROMACHI KIKAI, ANIMEX AUTO MK-110).

[2] = molecular target: T1, serotonin-5-HT2 receptor (Rattus norvegicus, UniProt P14842); test: Binding to serotonin-5-HT2 receptor, [3H]ketanserin, P2 fraction of rat cerebral cortex; settings: read-out: Inhibition at 10^-9 M (%)
T1 construct: a 5-HT2 receptor of a rat cerebral cortex; from tissue; host or cells: rat cerebral cortex, P2 membrane fraction
Method: The affinity of the compound of the present invention for a 5-HT2 receptor of a rat cerebral cortex was assayed as follows. A P2 fraction was prepared in the same manner as described above in connection with the above (a). The P2 fraction was incubated at 37°C for 15 min in a 50 mM Tris/HCl buffer (pH 7.4) containing 1 nM [^3H]ketanserin and the compound of the present invention with various concentrations, and the amount of bound [^3H]ketanserin was then measured.

[3] = system: catalepsy; test: Cataleptogenic effect (extrapyramidal effect, catalepsy provoking activity) in mice; settings: male, ddY, mouse, in vivo, ip, catalepsy observed after 20, 30 and 40 minutes
Method: The extrapyramidal effect of the compounds according to the present invention was assayed by an index the catalepsy provoking activity as a representative pharmacological evaluation method of the extrapyramidal effect. Male ddY mice having a body weight of 25 - 35 g which were divided into groups each consisting of 3 - 6 animals were subjected to the test. The compound of the present invention was administered intraperitoneally to observe catalepsy after 20, 30 and 40 minutes, respectively. Catalepsy was judged as positive in such cases that a mouse whose front paw was compulsorily hung up on an iron bar having a diameter of 1 mm and horizontally laid at a height of 3 cm remained in such a strained posture for more than 30 seconds. […]

[4] = molecular target: T2, dopamine-D2 receptor (Rattus norvegicus, UniProt P61169); test: Binding to dopamine-D2 receptor, [3H]spiperone, P2 fraction of rat cerebral corpus striatum; settings: read-out: Inhibition at 10^-7 M (%)
T2 construct: using a P2 fraction of a rat cerebral corpus striatum; from tissue; host or cells: rat cerebral corpus striatum, P2 membrane fraction
T2 sequence (P61169 whole entry): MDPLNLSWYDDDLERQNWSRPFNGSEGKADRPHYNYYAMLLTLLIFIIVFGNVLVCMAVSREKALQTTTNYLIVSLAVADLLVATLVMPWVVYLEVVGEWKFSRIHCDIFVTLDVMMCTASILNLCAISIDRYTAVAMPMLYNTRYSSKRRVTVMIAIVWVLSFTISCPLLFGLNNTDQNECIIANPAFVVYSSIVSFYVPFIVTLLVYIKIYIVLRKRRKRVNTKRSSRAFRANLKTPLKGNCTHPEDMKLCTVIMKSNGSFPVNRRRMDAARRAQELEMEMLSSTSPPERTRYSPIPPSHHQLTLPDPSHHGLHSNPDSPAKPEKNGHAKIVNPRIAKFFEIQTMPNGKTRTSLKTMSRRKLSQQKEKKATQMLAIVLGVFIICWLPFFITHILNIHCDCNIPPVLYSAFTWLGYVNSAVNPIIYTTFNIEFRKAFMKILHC
Method: The affinity of the compound of the present invention for D2 receptors was studied using a P2 fraction of a rat cerebral corpus striatum. The rat cerebral corpus striatum was homogenized in 0.32 M sucrose in an amount of 10 times that of the rat cerebral corpus striatum, and the homogenate was centrifuged at 900 x g for 10 min. […] An incubation buffer (50 mM Tris, 120 mM NaCl, 5 mM KCl, 1 mM MgCl2, 1 mM CaCl2, pH 7.4) was added to the sediment, and the mixture was then centrifuged at 39,000 x g for 20 min. The sediment was obtained as a P2 fraction. The P2 fraction was incubated at 37°C for 30 min in a buffer containing 0.1 nM [^3H]spiperone and the compound of the present invention with various concentrations. The reaction solution was filtered through a Whatman GF/B glass filter, and the amount of bound [^3H]spiperone was measured by a liquid scintillation counter.

T1 sequence (P14842 whole entry): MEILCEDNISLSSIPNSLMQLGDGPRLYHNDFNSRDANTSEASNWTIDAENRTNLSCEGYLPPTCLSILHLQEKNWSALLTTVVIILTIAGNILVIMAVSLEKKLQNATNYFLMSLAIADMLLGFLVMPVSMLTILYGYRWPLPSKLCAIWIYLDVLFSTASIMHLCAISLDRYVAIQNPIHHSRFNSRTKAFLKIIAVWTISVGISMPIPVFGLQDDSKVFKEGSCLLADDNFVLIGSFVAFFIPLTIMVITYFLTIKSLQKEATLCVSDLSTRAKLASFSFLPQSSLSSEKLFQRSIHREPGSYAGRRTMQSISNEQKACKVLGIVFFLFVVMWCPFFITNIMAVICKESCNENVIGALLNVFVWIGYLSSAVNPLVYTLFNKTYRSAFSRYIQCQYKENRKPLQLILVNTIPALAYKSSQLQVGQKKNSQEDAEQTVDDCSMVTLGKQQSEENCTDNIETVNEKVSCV

| Structure (SMILES) | ED50 [1] [mg/kg] | inhibition at 0.001 µM [2] [%] | ED50 [3] [mg/kg] | inhibition at 0.1 µM [4] [%] |
| --- | --- | --- | --- | --- |
| Cc1cc(=O)n2c(CCN3CCC(c4noc5cc(F)ccc45)CC3)csc2n1 [Example 20, 3-[2-[4-(6-Fluoro-1,2-benzisoxazol-3-yl)-1-piperidinyl]ethyl]-5H-7-methylthiazolo[3,2-a]pyrimidin-5-one] | 0.04 | 66.3 |  |  |
| CN(C)CCCN1c2ccccc2Sc2ccc(Cl)cc21 [Chlorpromazine, chlorpromazine, reference compound] | 1.1 |  | 6.2 |  |
| Cc1cn2c(C)c(CCN3CCC(c4noc5cc(F)ccc45)CC3)sc2n1 [Example 11, 3,6-Dimethyl-2-[2-[4-(6-fluoro-1,2-benzisoxazol-3-yl)-1-piperidinyl]ethyl]imidazo[2,1-b]thiazole] | 0.12 |  | 3.3 |  |
| Cc1cc(=O)n2c(C)c(CCN3CCC(c4csc5cc(F)ccc45)CC3)sc2n1 [Example 8, 3,7-Dimethyl-2-[2-[4-(6-fluoro-1-benzothiophen-3-yl)-1-piperidinyl]ethyl]-5H-thiazolo[3,2-a]pyrimidin-5-one] |  |  |  | 95.2 |
| Cc1cc(=O)n2c(C)c(CCN3CCC(c4noc5cc(F)ccc45)CC3)sc2n1 [Example 4, 3,7-Dimethyl-2-[2-[4-(6-fluoro-1,2-benzisoxazol-3-yl)-1-piperidinyl]ethyl]-5H-thiazolo[3,2-a]pyrimidin-5-one] | 0.07 |  | 1.2 |  |
| O=C(CCCN1CCC(O)(c2ccc(Cl)cc2)CC1)c1ccc(F)cc1 [Haloperidol, haloperidol, reference compound] | 0.2 |  | 1.3 |  |
